US12496269B2, “Steamed Glycyrrhiza sp. extract with increased glycyrrhetinic acid contents and preparation method thereof” (LG Household & Health Care Ltd., priority 2021, dated 2025)

Tests used:
MNT-1 melanoma cells = assay: Whitening effect by inhibition of melanin production; assay type: cell-based; conditions: Homo sapiens, positive control at 200 μg/mL (200 ppm), 72 hours, vs control group, read-out: Melanin production inhibition rate (%)
Procedure: In order to examine the whitening effect of the Glycyrrhiza sp. extract, 10 g of the Glycyrrhiza sp., which was not treated, steamed at 120° C., or roasted at 200° C. and steamed at 120° C., was extracted with 200 mL of 50% butylene glycol and filtered to prepare each extract.
To culture MNT-1 melanoma cells, a mixture of DMEM (Dulbecco's Modified Eagle's Medium) and FBS (Fetal Bovine Serum) was used as a basic medium, and MNT-1 melanoma cells were dispensed in a 6-well plate at a density of 1×10^5 cells/mL to 2×10^5 cells/mL and cultured for 24 hours. Each extract was treated at a concentration of 0.1% in the cell culture solution, and then cultured for 72 hours. As a control group, 50% butylene glycol was used. Arbutin, which is a positive control, was treated at 200 μg/mL (200 ppm). […] Melanin in the precipitate was dissolved by adding 100 μL of 0.5 N sodium hydroxide solution and incubating for 12 hours, and absorbance at 450 nm was measured using an ELISA reader to measure the total amount of melanin produced. The total amount of melanin, of which production was inhibited as compared to the control group, was determined as the melanin production inhibition rate (%), and the experiment was conducted in triplicate, and then the average value was calculated (Table 5).

Raw264.7 cells = assay: Anti-inflammatory effect by inhibition of NO production (lipopolysaccharide-stimulated); assay type: cell-based; conditions: positive control at 100 μM, lipopolysaccharide 500 ng/mL, 18 hours, vs control group
Procedure: In order to examine the anti-inflammatory effect of the Glycyrrhiza sp. extract, 10 g of the Glycyrrhiza sp., which was not treated, steamed at 120° C., or roasted at 200° C. and steamed at 120° C., was extracted with 200 mL of 50% butylene glycol and filtered to prepare each extract.
To culture Raw264.7 cells, a mixture of DMEM (Dulbecco's Modified Eagle's Medium) and FBS (Fetal Bovine Serum) was used as a basic medium, and Raw264.7 cells were dispensed in a 24-well plate at a density of 1×10^5 cells/mL to 2×10^5 cells/mL and cultured for 24 hours. After removing the medium and starving with a serum-free medium for 12 hours, each extract was treated at a concentration of 1% in the cell culture solution. 30 minutes later, lipopolysaccharide was added at a concentration of 500 ng/mL, followed by culturing for 18 hours. As a control group, 50% butylene glycol was used. L-NMMA, which is a positive control, was treated at 100 μM. After culturing, the supernatant was taken and transferred to a 96-well plate, and GRIESS reagent was added and reacted at room temperature for 15 minutes. Absorbance at 540 nm was measured using an ELISA reader. The total amount of NO, of which production was inhibited as compared to the control group, was determined as the NO production inhibition rate (%), and the experiment was conducted in triplicate, and then the average value was calculated (Table 6).

Row | SMILES | inhibition at 200 µg/mL (MNT-1 melanoma cells) [%] | NO production inhibition rate (%) (Raw264.7 cells)
1 | OC[C@H]1O[C@@H](Oc2ccc(O)cc2)[C@H](O)[C@@H](O)[C@@H]1O [Arbutin] | 19.7 | 
2 | CNC(=N)NCCC[C@H](N)C(=O)O [L-NMMA] |  | 60.9
